Experiments:
Format in all cases: in vivo
[1] = tested on: Lolium perenne L. (LOLPE); test: Glasshouse herbicide efficacy of imazethapyrammonium with adjuvants, fresh weight after 14 days; conditions: imazethapyrammonium 4.0 g ae/ha, adjuvant where named 0.25% w/v, plants in 2-3-leaf stage, untreated 13.97 g
Protocol: (§1) Test formulations are prepared by adjusting an aqueous solution of imazethapyrammonium to a concentration of 5 mmol. The adjuvants are added to this solution in an amount corresponding to a concentration of 0.25% w/v (2.5 g/l). These test solutions are applied in various concentrations (concentration stated g ae/ha, where ae means acidic equivalent) to the plant species Solanum Nigrum L. (SOLNI) and Lolium perenne L. (LOLPE) while they are in the 2-3-leaf stage in a glasshouse as shown in the following table.
(§2) After 14 days, the efficacy of the herbicidal formulation is assessed by weighing the plant parts still present (fresh weight).

[2] = tested on: Solanum Nigrum L. (SOLNI); test: as above; conditions: imazethapyrammonium 4.0 g ae/ha, adjuvant where named 0.25% w/v, plants in 2-3-leaf stage, untreated 15.42 g
Protocol: as §1, §2

Avena fatura L. (AVEFA) = test: Glasshouse herbicide efficacy of clodinafop propargyl (Topic 240) with adjuvants, fresh weight after 21 days; conditions: clodinafop propargyl 5 g a.i./ha (Topic 240 in water), adjuvant where named 0.25% w/v, plants in 2-3-leaf stage, untreated 17.48 g
Protocol: Test formulations are prepared by mixing the commercially available formulation Topic 240, which contains 240 g of clodinafop propargyl per liter of formulation, as stated by the manufacturer (Syngenta), with water. The adjuvants are added to this emulsion in an amount corresponding to a concentration of 0.25% w/v (2.5 g/l). These test solutions are applied in various concentrations (concentration stated in g a.i/ha, where a.i. means active ingredient) to the plant species Avena fatura L. (AVEFA) while they are in the 2-3-leaf stage in a glasshouse as shown in the following table.
After 21 days, the efficacy of the herbicidal formulation is assessed by weighing the plant parts which are still present (fresh weight).

Row | SMILES | fresh weight [g] LOLPE [1] [g] | fresh weight [g] SOLNI [2] [g] | fresh weight [g] AVEFA (Avena fatura L. (AVEFA)) [g]
1 | CCc1cnc(C2=NC(C)(C(C)C)C(=O)N2)c(C(=O)O)c1.N (stereo not drawn) [Imazethapyrammonium, imazethapyrammonium] | 13.40 | 10.61 | –
2 | C#CCOC(=O)[C@@H](C)Oc1ccc(Oc2ncc(Cl)cc2F)cc1 [Clodinafop propargyl, clodinafop propargyl] | – | – | 15.69

— patent publication US20070275854A1, “Agrochemical Composition Containing Phosphoric Acid Ester” (priority 2004, published 2007)
